# Experimental data published in article PMC6736568, “Discovery of Novel Anti-cryptosporidial Activities From Natural Products by in vitro High-Throughput Phenotypic Screening” (Frontiers in Microbiology, 2019).
# Where two headings read alike, the source gives them in different places.
# Columns and labels:
# Cryptosporidium parvum = assay: qRT-PCR assay of the growth of C. parvum in vitro in HCT-8 host cells (primary and secondary screening, EC50); type: cell-based; conditions: for % Inhibition (3.3 uM): secondary screening at 3.3 uM
# [1] = primary screening at 10 uM, from Hs18S ΔCT
# [2] = primary screening at 10 uM, treated vs control
SMILES,Inhibition (%) (Cryptosporidium parvum; primary screening at 10 uM),% Inhibition (3.3 uM) (Cryptosporidium parvum),Cytotoxicity (%) (HCT-8 host cells (Hs18S); [1]),Hs18S ΔCT (HCT-8 host cells (Hs18S); [2]),"inhibition at 10 µM (Cryptosporidium parvum; Cryptosporidium parvum, HCT-8)",Hs18S ΔCT (HCT-8 host cells (Hs18S)),Cytotoxicity (%) (HCT-8 host cells (Hs18S); 10 µM),Inhibition (%) (Cryptosporidium parvum; 10 µM)
CS(C)(=O)=O [DIMETHYLSULFONE],65.78%,61%,46.5%,0.90,,,,
N[C@@H](CSCSC[C@H](N)C(=O)O)C(=O)O [DJENKOLIC ACID],23.33%,,0.2%,0.00,,,,
C[C@]12CC[C@H](O)C[C@@H]1CC[C@@H]1[C@@H]2CC[C@]2(C)C(=O)CC[C@@H]12 [EPIANDROSTERONE],,,,,-36%,-0.05,,
O=C(O[C@@H]1Cc2c(O)cc(O)cc2O[C@@H]1c1ccc(O)c(O)c1)c1cc(O)c(O)c(O)c1 [EPICATECHIN MONOGALLATE],6.24%,,23.1%,0.38,,,,
O=C(O[C@@H]1Cc2c(O)cc(O)cc2O[C@@H]1c1cc(O)c(O)c(O)c1)c1cc(O)c(O)c(O)c1 [EPIGALLOCATECHIN-3-MONOGALLATE],10.02%,,-14.2%,-0.19,,,,
O=C(O)c1cc(O)c(=O)c2c(O)c(O)cc([C@H]3Oc4cc(O)cc(O)c4C[C@H]3O)c2c1 [EPITHEAFLAVIC ACID],-9.36%,,,,,,6.9%,
CC(=O)O[C@@H]1CC2C(C)(C)C(=O)C3OC3[C@]2(C)C2CC[C@@]3(C)[C@H](c4ccoc4)OC(=O)C4OC43[C@@]21C (stereo partly drawn) [EPOXYGEDUNIN],29.04%,,-37.3%,-0.46,,,,
CC(=O)O[C@H]1CC[C@@]2(C)C(=CC=C3[C@@H]4CC[C@H]([C@H](C)/C=C/[C@H](C)C(C)C)[C@@]4(C)CC[C@@H]32)C1 [ERGOSTEROL ACETATE],-10.68%,,3.7%,0.06,,,,
O=C[C@H](O)[C@H](O)CO [ERYTHROSE],57.20%,,14.6%,0.23,,,,
O.O=c1ccc2cc(O[C@@H]3OC(CO)[C@@H](O)[C@@H](O)C3O)c(O)cc2o1 (stereo partly drawn) [ESCULIN MONOHYDRATE],10.62%,,-34.0%,-0.42,,,,
COc1c(-c2ccccc2)oc2cc(O)cc(O)c2c1=O [GALANGIN 3-O-METHYL ETHER],-5.04%,,,,,,-45.3%,
COc1cc(OC)c2c(=O)c(OC)c(-c3ccccc3)oc2c1 [GALANGIN TRIMETHYL ETHER],-18.22%,,8.8%,0.13,,,,
NC(=O)CC[C@H](N)C(=O)O [GLUTAMINE (D)],2.46%,,-11.8%,-0.16,,,,
"CC1(C)[C@@H](O[C@H]2O[C@H](C(=O)O)[C@@H](O)[C@H](O)[C@H]2O[C@@H]2O[C@H](C(=O)O)[C@@H](O)[C@H](O)[C@H]2O)CC[C@]2(C)[C@H]3C(=O)C=C4[C@@H]5C[C@@](C)(C(=O)O)CC[C@]5(C)CC[C@@]4(C)[C@]3(C)CC[C@@H]12.N [GLYCYRRHIZIC ACID, AMMONIUM SALT]",1.41%,,-43.6%,-0.52,,,,
O=c1c(O)c(-c2ccc(O)c(O)c2)oc2c(O[C@@H]3O[C@H](CO)[C@@H](O)[C@H](O)[C@H]3O)c(O)cc(O)c12 [GOSSYPIN],-22.05%,,-4.8%,-0.07,,,,
CC(=O)O.Cc1cc2c(C(C)C)c(O)c(O)c(C=O)c2c(O)c1-c1c(C)cc2c(C(C)C)c(O)c(O)c(C=O)c2c1O [GOSSYPOL-ACETIC ACID COMPLEX],-21.55%,,-7.1%,-0.10,,,,
C[C@H]1CC[C@@H](C(C)(C)O)CC2=C1CC[C@@H]2C [GUAIOL(-)],,,,,,0.20,12.7,-22.71
CC(=O)Oc1cc2c(cc1OC(C)=O)[C@@H]1c3ccc(OC(C)=O)c(OC(C)=O)c3OC[C@]1(OC(C)=O)C2 [HAEMATOXYLIN PENTAACETATE],-26.73%,,12.3%,0.19,,,,
COc1ccc([C@@H]2CC(=O)c3c(O)cc(O[C@@H]4O[C@H](CO[C@@H]5O[C@@H](C)[C@H](O)[C@@H](O)[C@H]5O)[C@@H](O)[C@H](O)[C@H]4O)cc3O2)cc1O [HESPERIDIN],66.25%,36%,21.5%,0.35,,,,
COc1ccc(-c2oc3cc(OC)c(OC)c(OC)c3c(=O)c2OC)cc1OC [HEXAMETHYLQUERCETAGETIN],95.76%,-42%,50.3%,1.01,,,,
O=c1cc(-c2cc(O)c(O)c(O)c2)oc2cc(O)cc(O)c12 [HIERACIN],-2.75%,,,,,,31.0%,
"COc1ccc2c(c1OC)C(=O)O[C@@H]2[C@H]1c2cc3c(cc2CCN1C)OCO3 [HYDRASTINE (1R, 9S)]",-23.62%,,,-0.18,,,,
CC(=O)[C@@]1(O)CC[C@H]2[C@@H]3CCC4=CC(=O)CC[C@]4(C)[C@H]3CC[C@@]21C [HYDROXYPROGESTERONE],-50.17%,,22.7%,0.37,,,,

SMILES,Inhibition (%) (Cryptosporidium parvum; primary screening at 10 uM),% Inhibition (3.3 uM) (Cryptosporidium parvum),Cytotoxicity (%) (HCT-8 host cells (Hs18S); [1]),Hs18S ΔCT (HCT-8 host cells (Hs18S); [2]),"inhibition at 10 µM (Cryptosporidium parvum; Cryptosporidium parvum, HCT-8)",Hs18S ΔCT (HCT-8 host cells (Hs18S)),Cytotoxicity (%) (HCT-8 host cells (Hs18S); 10 µM),Inhibition (%) (Cryptosporidium parvum; 10 µM)
COc1ccc2c(=O)c(-c3ccc(O)cc3)coc2c1 [ISOFORMONONETIN],-7.36%,,-21.7%,-0.28,,,,
CC1(C)C=Cc2c(c3c(c4c(=O)c(-c5ccc(O)cc5)coc24)OC(C)(C)CC3)O1 [ISOOSAJIN],96.83%,39%,-18.5%,-0.24,,,,
C[C@H]1O[C@H](OC2[C@@H](O)[C@@H](O)C(O)[C@H](O)[C@H]2O)[C@@H](N)C[C@@H]1N=C(N)C(=O)O.Cl (stereo partly drawn) [KASUGAMYCIN HYDROCHLORIDE],47.53%,,-1.2%,-0.02,,,,
C=CCSC[C@H](N)C(=O)O [L-DEOXYALLIIN],38.80%,,-21.9%,-0.29,,,,
CC(=O)NCCc1ccc(O)c(-c2c(O)c(O)c3c(c2O)C(=O)c2c(cc(O)c(C(=O)O)c2C(=O)O)C3=O)c1 [LACCAIC ACID A],21.81%,,-6.6%,,,,,
O=C(O)[C@H](O)[C@@H](O)[C@H](O[C@@H]1O[C@H](CO)[C@H](O)[C@H](O)[C@H]1O)[C@H](O)CO [LACTOBIONIC ACID],-17.48%,,-27.5%,-0.35,,,,
O.OC[C@H]1O[C@@H](O[C@H]2[C@H](O)[C@@H](O)[C@@H](O)O[C@@H]2CO)[C@H](O)[C@@H](O)[C@H]1O [LACTOSE MONOHYDRATE],31.71%,,,0.02,,,,
C[C@@H]1CC[C@H]2[C@](C)(CO)[C@@H](O)CC[C@]2(C)[C@@]12CC[C@@](CO)(CCO)O2 [LAGOCHILIN],9.20%,,34.1%,0.60,,,,
CC(=O)O[C@H]1CC[C@]2(C)C3=C(CC[C@H]2C1(C)C)[C@]1(C)CC[C@H]([C@H](C)CCC=C(C)C)[C@@]1(C)CC3 [LANOSTEROL ACETATE],-3.78%,,-2.8%,-0.04,,,,
Cc1occc(=O)c1O [LARIXINIC ACID],59.78%,,12.9%,0.20,,,,
C=C[C@@](C)(O)CC[C@H]1C(=C)C[C@H](O)[C@H]2C(C)(C)CCC[C@]12C [LARIXOL],31.41%,,2.2%,0.03,,,,
CC(C)CCC[C@@H](C)[C@H]1CC[C@H]2C3=CC[C@H]4C[C@@H](O)CC[C@]4(C)[C@H]3CC[C@]12C [LATHOSTEROL],-50.10%,,21.4%,0.35,,,,
O=C1CCC[C@@H]2[C@H]3C[C@@H](CN12)[C@@H]1CCCCN1C3.[O-][Cl+3]([O-])([O-])O [LUPANINE PERCHLORATE],10.49%,,-6.1%,-0.09,,,,
C=C(C)[C@@H]1CC[C@]2(C)CC[C@]3(C)[C@H](CC[C@@H]4[C@@]5(C)CC[C@H](OC(C)=O)C(C)(C)[C@@H]5CC[C@]43C)[C@@H]12 [LUPEOL ACETATE],25.85%,,-12.1%,-0.17,,,,
COc1cc2oc3cc(OC)c(OC)c(CC=C(C)C)c3c(=O)c2c(OC)c1CC=C(C)C [MANGOSTIN TRIMETHYL ETHER],-8.08%,,,,,0.00,-0.1,
OC[C@H]1O[C@H](OCC2O[C@@H](O)[C@H](O)[C@@H](O)[C@@H]2O)[C@H](O)[C@@H](O)[C@H]1O (stereo partly drawn) [MELIBIOSE],-16.19%,,-4.0%,-0.06,,,,
COC(=O)/C(C)=C\C[C@@]12OC(C)(C)[C@@H]3C[C@@H](C=C4C(=O)c5c(OC)c6c(c(CC=C(C)C)c5O[C@]431)O[C@](C)(CCC=C(C)C)C=C6)C2=O [METHYL GAMBOGATE METHYL ETHER],23.61%,,22.4%,0.37,,,,
COC(=O)/C=C/c1cc(OC)c(OC)c(OC)c1 [METHYL TRIMETHOXYCINNAMATE],-24.35%,,2.8%,0.04,,,,
C[C@@]1(O)CCOC(=O)C1 [MEVALONIC ACID LACTONE],26.69%,,16.5%,0.26,,,,
COC(=O)C1=CO[C@@H](C)[C@H]2CN3CC[C@]4(C(=O)Nc5ccccc54)[C@@H]3C[C@H]12 [MITRAPHYLLINE],41.31%,,11.1%,0.17,,,,
CCC(C)C(NC)C(=O)O (stereo not drawn) [N-METHYLISOLEUCINE],-3.51%,,,,,-0.07,-5.2,
CN1CCC[C@H]1c1cccnc1.O=C(O)C(O)C(O)C(=O)O.O=C(O)C(O)C(O)C(=O)O [NICOTINE BITARTRATE],36.71%,,-43.3%,-0.52,,,,
